{"source": "patent US20250304612A1", "about": "“THERAPEUTIC AGENT FOR BLOOD CANCER” (Aptabio Therapeutics Inc., priority 2017, published 2025)", "assay_in_all_cases": "MTT cytotoxicity assay, drug-resistant blood cancer cells", "assay_type_in_all_cases": "cell-based", "key": {"[1]": {"test_system": "Cytarabine-resistant MV-4-11", "details": "Homo sapiens, MV4-11, 120 h; Cytarabine-resistant MV-4-11, MTT, 5 days; read-out: IC50, cytotoxic effects on drug-resistant blood cancer cells"}, "[2]": {"test_system": "Azacitidine-resistant MOLM13", "details": "Homo sapiens, MOLM-13, 120 h, 5 days, read-out: IC50, cytotoxic effects on drug-resistant blood cancer cells", "description": "(§1) Each oligonucleotide-modified nucleic acid was diluted in a 10 mM Tris-HCl (pH 7.4) solution to a final concentration of 100 μM. The diluted solution was allowed to stand at 94° C. for 5 minutes and then the tube was allowed to stand on ice. The resulting solution was added with a 2M KCl solution such that a final concentration of the KCl solution became 50 mM, allowed to stand at 60° C. for 3 hours and was slowly cooled to room temperature. Each oligonucleotide was diluted in a 10 mM Tris-HCl (pH 7.4) solution to a concentration of 10 μM, and was allowed to stand at 94° C. for 5 minutes, and the tube was allowed to stand on ice. The resulting solution was added with a 2M KCl solution such that the final concentration of the KCl solution became 50 mM, and allowed to stand at 60° C. for 3 hours and then slowly cooled to room temperature, which was then used for the present Example.\n(§2) On the day before the experiment, 190 μl of a culture medium (at a concentration of 10^4 to 10^5 cells/ml) containing blood cancer cells such as HL60, MV-4-11, CCRF-CEM, MOLT-4 and MOLM-13 cell lines, and drug-resistant blood cancer cells such as azacitidine (AZA-1)-resistant MOLM13, decitabine (Dec-5)-resistant MOLM13 and cytarabine (AraC-1)-resistant MOLM13 cell lines, and normal cells such as WI38, CCD-18co and Fa2N4 cells were seeded on a 96-well plate. The next day, 10 μl of the oligonucleotide-modified nucleic acid solution prepared in Example 2 was added and then cultured for 5 days.\n(§3) Five days after drug treatment, MTT assay was performed to measure cytotoxicity of the cell lines [see JBC 1999, 26369]."}, "[3]": {"test_system": "Cytarabine-resistant MOLM13", "details": "Homo sapiens, MOLM-13, 120 h, 5 days, read-out: IC50, cytotoxic effects on drug-resistant blood cancer cells", "description": "as §1, §2, §3"}, "[4]": {"test_system": "Decitabine-resistant MOLM13", "details": "Homo sapiens, MOLM-13, 120 h, 5 days, read-out: IC50, cytotoxic effects on drug-resistant blood cancer cells", "description": "as §1, §2, §3"}, "[5]": {"test_system": "Cytarabine-resistant HL-60", "details": "Homo sapiens, 120 h; Cytarabine-resistant HL-60, MTT, 5 days; read-out: IC50, cytotoxic effects on drug-resistant blood cancer cells"}}, "data": [{"smiles": "Nc1ccn([C@@H]2O[C@H](CO)[C@@H](O)[C@@H]2O)c(=O)n1", "note": "[Cytarabine, cytarabine]", "values": [{"measurement": "IC50", "setting": "[1]", "value": "> 20", "unit": "µM"}, {"measurement": "IC50", "setting": "[2]", "value": 3.5, "unit": "µM"}, {"measurement": "IC50", "setting": "[3]", "value": "> 10", "unit": "µM"}, {"measurement": "IC50", "setting": "[4]", "value": 3.49, "unit": "µM"}, {"measurement": "IC50", "setting": "[5]", "value": "> 30", "unit": "µM"}]}]}
